In patent publication US20050165109A1, “Pharmaceutical composition with combined active agents and methods for using the same” (priority 2002, published 2005):

Assays:
ob/ob mice [1] = experiment: Plasma glucose in ob/ob mice, metformin/ciprofibrate, oral once a day for 4 days; format: in vivo; settings: for Effect on plasma glucose concentrations (in words) / Glucose levels Day 4: ob/ob mice; for Effect on plasma glucose concentrations (in words): 4 days oral, versus vehicle; for Difference between Vehicle & treatment: plasma glucose Day 4, ob/ob mice; for Difference between Vehicle & treatment / Glucose levels Day 4: metformin 90 mg/kg, ciprofibrate 2.5 mg/kg; for Glucose levels Day 4: plasma glucose, oral once a day for 4 days
Experimental: (§1) Experiment was conducted in ob/ob mice, an animal model of diabetes. Male, 8-9 week old ob/ob mice were purchased from Jackson Laboratory (Bar Harbor, Me.) and housed in a temperature and humidity controlled room with 12 hour light (6 am to 6 pm)/dark (6 pm-6 am) cycle and ad libitum of water and regular Purina chow. Animals were screened for plasma glucose levels and randomized into groups for experiments.
Experiment was conducted in ob/ob mice. The experimental condition was the same as Working Example 1.
In this experiment, 8 animals were orally dosed with vehicle, metformin (90 mg/kg), ciprofibrate (2.5 mg/kg), or combination of metformin (90 mg/kg) and ciprofibrate (2.5 mg/kg) once a day for 4 days. Plasma glucose concentrations were determined at the end of the experiment.

[2] = literature: WO 99/40904, U.S. Pat. No. 5,304,575, Vuorinen-Markkola 1993, Hernandez-Mijares 2000; cited from earlier work
ob/ob mice [3] = experiment: Plasma glucose in ob/ob mice, metformin/gemfibrozil, oral once a day for 3 days; format: in vivo; settings: for Effect on plasma glucose concentrations (in words) / Glucose levels Day 3: ob/ob mice; for Effect on plasma glucose concentrations (in words): 3 days oral, versus vehicle; for Difference between Vehicle & treatment: plasma glucose Day 3, ob/ob mice; for Difference between Vehicle & treatment / Glucose levels Day 3: metformin 90 mg/kg, gemfibrozil 100 mg/kg; for Glucose levels Day 3: plasma glucose, oral once a day for 3 days
Experimental: as §1
In this experiment, 8 animals were orally dosed with vehicle, metformin (90 mg/kg), gemfibrozil (100 mg/kg), or combination of metformin (90 mg/kg) and gemfibrozil (100 mg/kg) once a day for 3 days. Plasma glucose concentrations were determined at the end of the experiment.

Structure (SMILES)	Effect on plasma glucose concentrations (in words) (ob/ob mice [1])	Effect on plasma glucose concentrations (in words) (ob/ob mice [1]; listed as ciprofibrate)	Difference between Vehicle & treatment (ob/ob mice [1]) [mg/dL]	Glucose levels Day 4 (ob/ob mice [1]) [mg/dL]	Glucose-lowering effect (in words) [2]	Effect on plasma glucose concentrations (in words) (ob/ob mice [3])	Effect on plasma glucose concentrations (in words) (ob/ob mice [3]; listed as gemfibrozil)	Difference between Vehicle & treatment (ob/ob mice [3]) [mg/dL]	Glucose levels Day 3 (ob/ob mice [3]) [mg/dL]
CC(C)(Oc1ccc(C2CC2(Cl)Cl)cc1)C(=O)O (stereo not shown) [Ciprofibrate, ciprofibrate]	did not have significant effect on glucose levels	minimum effect on reducing plasma glucose and it was not statistically significant	-32.2	351.1 ± 23.1	lack of glucose-lowering effect	–	–	–	–
Cc1ccc(C)c(OCCCC(C)(C)C(=O)O)c1 [Gemfibrozil, gemfibrozil]	–	–	–	–	lack of glucose-lowering effect	did not have significant effect on glucose level	minimum reduction of plasma glucose and it was not statistically significant	-57.1	349.7 ± 39.0
CN(C)C(=N)N=C(N)N [Metformin, metformin]	significantly reduced plasma glucose concentrations	–	-84.1	299.2 ± 24.9	–	significantly reduced plasma glucose concentrations	–	-88.2	318.6 ± 29.3
